These are literature values, as cited in patent publication US20100113583A1, “COMBINATION THERAPIES FOR THE TREATMENT OF OBESITY” (priority 2008, published 2010).

The conditions of data set [1]: for weight loss of body weight for drug compared with placebo: literature studies.

With `CCN[C@@H](C)Cc1cccc(C(F)(F)F)c1` [dexfenfluramine], the “clinically significant side effect / limitation of clinical use” value was “suspected heart valvulopathy”. Moreover, the “weight loss of body weight for drug compared with placebo” value (from here on “weight loss … compared with placebo”) in data set [1] is reported as “about 5%”.
Consider `CCCCCCCCCCC[C@@H](C[C@@H]1OC(=O)[C@H]1CCCCCC)OC(=O)[C@H](CC(C)C)NC=O` [orlistat], for which the “clinically significant side effect / limitation of clinical use” value is recorded as “GI side effects”. Further, the “weight loss … compared with placebo” value in data set [1] is “about 5%”.
For the compound `CC(C)CC(N(C)C)C1(c2ccc(Cl)cc2)CCC1` (stereo not drawn) [sibutramine], the “clinically significant side effect / limitation of clinical use” value is reported as “can cause hypertension”. In addition, in data set [1], the “weight loss … compared with placebo” value is recorded as “about 5%”.
`CCNC(C)Cc1cccc(C(F)(F)F)c1` (stereo not drawn) [fenfluramine]: the “clinically significant side effect / limitation of clinical use” value is “caused heart-valve complications”.
Consider `CC(C)(N)Cc1ccccc1` [phentermine], for which the “efficacy in clinical use” value in data set [1] (clinical use as weight loss drug) is “limited efficacy”. The “weight loss … compared with placebo” value in data set [1] is “about 5%”.
